In ChEMBL document CHEMBL1255503, “Biochemical and biophysical characterization of unique switch pocket inhibitors of p38α” (Bioorg Med Chem Lett, 2010):

What follows are compounds tested against T1, Mitogen-activated protein kinase 14 (Homo sapiens, UniProt Q16539).
T1 sequence (Q16539 whole entry): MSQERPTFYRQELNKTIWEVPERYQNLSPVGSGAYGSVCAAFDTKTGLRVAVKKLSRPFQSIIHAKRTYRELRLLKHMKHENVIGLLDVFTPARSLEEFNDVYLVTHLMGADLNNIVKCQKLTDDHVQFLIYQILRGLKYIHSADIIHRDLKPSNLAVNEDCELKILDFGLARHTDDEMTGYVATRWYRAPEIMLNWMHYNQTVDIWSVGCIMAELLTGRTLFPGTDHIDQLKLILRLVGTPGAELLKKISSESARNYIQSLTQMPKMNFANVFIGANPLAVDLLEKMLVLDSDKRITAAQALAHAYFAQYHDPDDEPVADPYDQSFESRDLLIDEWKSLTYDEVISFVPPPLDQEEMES
Description: Binding affinity to full-length GST-tagged p38alpha by surface plasmon resonance assay
Cc1ccc(-n2nc(C(C)(C)C)cc2NC(=O)Nc2cccc3ccccc23)cc1C(=O)NCC#N was tested, and the Kd was 55 nM.

Target: T1, Mitogen-activated protein kinase 14
Remark: another data set of the same source
Description: Binding affinity to full-length GST-tagged p38alpha after 2.5 hrs by TR-FRET competition binding assay
COc1ccc(CCNC(=O)c2cc(-n3nc(C(C)(C)C)cc3NC(=O)Nc3cccc4ccccc34)ccc2C)cc1 was tested, and the Ki was > 3900 nM. For Cc1ccc(-n2nc(C(C)(C)C)cc2NC(=O)Nc2cccc3ccccc23)cc1C(=O)NCCCN1CCCC1, the Ki was 301 nM. With Cc1ccc(-n2nc(C(C)(C)C)cc2NC(=O)Nc2cccc3ccccc23)cc1C(=O)NCCN1CCN(C)CC1 the Ki was 140 nM. COc1ccccc1CCNC(=O)c1cc(-n2nc(C(C)(C)C)cc2NC(=O)Nc2cccc3ccccc23)ccc1C was tested, and the Ki was > 3900 nM. Cc1ccc(-n2nc(C(C)(C)C)cc2NC(=O)Nc2cccc3ccccc23)cc1C(=O)NCC(CC(C)C)C(N)=O (stereo not drawn) was tested, and the Ki was 786 nM. In the case of Cc1ccc(-n2nc(C(C)(C)C)cc2NC(=O)Nc2cccc3ccccc23)cc1C(=O)NCCC1=CCCCC1, the Ki is reported as > 3900 nM. In the case of Cc1ccc(-n2nc(C(C)(C)C)cc2NC(=O)Nc2cccc3ccccc23)cc1C(=O)N[C@@H]1CS(=O)(=O)C[C@H]1O, the Ki is reported as 112 nM. Cc1ccc(-n2nc(C(C)(C)C)cc2NC(=O)Nc2cccc3ccccc23)cc1C(=O)NCCNc1ccccc1 was tested, and the Ki was 433 nM. Work on COCCCN1CCC(NC(=O)c2cc(-n3nc(C(C)(C)C)cc3NC(=O)Nc3cccc4ccccc34)ccc2C)CC1 yielded a Ki of 336 nM. For Cc1ccc(-n2nc(C(C)(C)C)cc2NC(=O)Nc2cccc3ccccc23)cc1C(=O)NCCCN1CCOCC1, the Ki was 291 nM. Cc1ccc(-n2nc(C(C)(C)C)cc2NC(=O)Nc2cccc3ccccc23)cc1C(=O)NCC#N gave a Ki of 252 nM. In the case of Cc1ccc(-n2nc(C(C)(C)C)cc2NC(=O)Nc2cccc3ccccc23)cc1C(=O)NCc1ccncn1, the Ki is reported as 327 nM. Cc1ccc(-n2nc(C(C)(C)C)cc2NC(=O)Nc2cccc3ccccc23)cc1C(=O)N(CCCN)C1CCCCC1 gave a Ki of 89 nM. In the case of CCN(CCN(C)C)C(=O)c1cc(-n2nc(C(C)(C)C)cc2NC(=O)Nc2cccc3ccccc23)ccc1C, the Ki is reported as 735 nM. For Cc1ccc(-n2nc(C(C)(C)C)cc2NC(=O)Nc2cccc3ccccc23)cc1C(=O)N(CCCN)C(C)C, the Ki was 312 nM. Cc1ccc(-n2nc(C(C)(C)C)cc2NC(=O)Nc2cccc3ccccc23)cc1C(=O)NC1CCN(CCN2CCOCC2)CC1 gave a Ki of 885 nM. Cc1ccc(-n2nc(C(C)(C)C)cc2NC(=O)Nc2cccc3ccccc23)cc1C(=O)NC[C@@H](CO)C(C)C was tested, and the Ki was 471 nM.
